Source: patent publication US20240343727A1, “PYRIDAZINONE OR PYRIDINONE COMPOUNDS, PREPARATION METHODS AND USES THEREOF” (InventisBio Co., Ltd., priority 2021, published 2024)

Target: T1, PARP7 (Homo sapiens, UniProt Q7Z3E1)
T1 sequence (Q7Z3E1 1-657): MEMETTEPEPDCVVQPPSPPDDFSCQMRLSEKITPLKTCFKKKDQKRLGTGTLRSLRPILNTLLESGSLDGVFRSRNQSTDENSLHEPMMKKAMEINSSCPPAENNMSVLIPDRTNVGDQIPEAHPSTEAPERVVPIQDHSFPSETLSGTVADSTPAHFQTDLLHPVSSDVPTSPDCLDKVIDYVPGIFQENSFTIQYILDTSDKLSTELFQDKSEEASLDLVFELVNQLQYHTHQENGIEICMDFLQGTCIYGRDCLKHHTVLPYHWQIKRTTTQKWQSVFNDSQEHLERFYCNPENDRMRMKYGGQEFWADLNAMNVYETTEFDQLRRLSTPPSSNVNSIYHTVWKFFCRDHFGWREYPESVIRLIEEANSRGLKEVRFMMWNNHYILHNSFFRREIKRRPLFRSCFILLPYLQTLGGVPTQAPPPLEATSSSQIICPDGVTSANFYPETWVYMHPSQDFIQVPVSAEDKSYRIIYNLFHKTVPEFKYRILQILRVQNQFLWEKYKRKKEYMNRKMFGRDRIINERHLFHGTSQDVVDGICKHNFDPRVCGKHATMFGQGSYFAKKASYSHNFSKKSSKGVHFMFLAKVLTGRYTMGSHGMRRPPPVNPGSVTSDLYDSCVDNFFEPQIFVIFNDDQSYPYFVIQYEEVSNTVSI
Assay: PARP7 TR-FRET assay (binding, displacement of biotinylated Probe A)
Conditions: 6 nM PARP7, 2 nM Probe A, 25° C., 30 min
Procedure: Biological Assay Example A: PARP7 TR-FRET Assay
A time-resolved fluorescence energy transfer (TR-FRET) assay was used to test binding activity of compounds to PARP7. Two microliter test compound was added in 384-well plate. Reactions were performed in a 6 uL volume by adding 4 uL mixture of PARP7 and Probe A (a biotinylated probe binding to the PARP7: N-(6-(2-(4-((2-(6-oxo-5-(trifluoromethyl)-1,6-dihydropyridazin-4-yl) isoindolin-5-yl) oxy) piperidin-1-yl) acetamido) hexyl)-5-((3aS,4S,6aR)-2-oxohexahydro-1H-thieno [3,4-d]imidazol-4-yl) pentanamide, made as reported in WO2019212937A1) in assay buffer (20 mM HEPES pH 8.0, 100 mM NaCl, 0.1% BSA, 2 mM DTT and 0.002% Tween20). The final concentration of PARP7 and Probe A were 6 nM and 2 nM, incubating with test compounds at 25° C. for 30 min. Four microliter ULight-anti 6xHis and LANCE Eu-W1024 labeled streptavidin (PerkinElmer) were added with the final concentration of ULight-anti 6xHis and LANCE Eu-W1024 at 4 nM and 0.25 nM. The reaction mixture was incubated at 25° C. for 30 min. The plate was read on a Tecan Spark plate reader (excitation wavelength at 320 nm, emission wavelength at 615 nm and 665 nm with a 90 us delay. The ratio of the 665/615 nm emission was calculated for each well to the amount of complex of PARP7 and Probe A in each well was calculated. The 0.25% DMSO vehicle was used as control and no PARP7 well was as blank well. Inhibition rate is calculated with the formula of % inhibition=100-100*(TRFcmpd-TRFblank)/(TRFcontrol−TRFblank). Inhibition IC50 is calculated with the equation of Y=Bottom+ (Top-Bottom)/(1+10^((LogIC50−X) *Hill Slope))

IC50	Compound
< 100 nM	O=C(CCO[C@@H]1CCNc2c1n[nH]c(=O)c2C(F)(F)F)N1CCN(c2ncc(C(F)(F)F)cn2)CC1 (single isomer, unassigned) [Compound 6]
> 1000 nM	O=C(COC1CCOc2c1n[nH]c(=O)c2Br)N1CCN(c2ncc(C(F)(F)F)cn2)CC1 (single isomer, unassigned) [Compound 9]
< 100 nM	O=C(COC1CCOc2c1n[nH]c(=O)c2C(F)(F)F)N1CCN(c2ncc(C(F)(F)F)cn2)CC1 (single isomer, unassigned) [Compound 10]
> 1000 nM	O=C(COC1CCOc2c1n[nH]c(=O)c2C(F)(F)F)N1CCN(c2ncc(C(F)(F)F)cn2)CC1 (single isomer, unassigned) [Compound 11]
< 100 nM	O=C(CC1CN(c2cc(C(F)(F)F)c(=O)[nH]n2)CCO1)N1CCN(c2ncc(C(F)(F)F)cn2)CC1 (single isomer, unassigned) [Compound 31]
< 100 nM	O=C(COC1CCOc2c1n[nH]c(=O)c2C(F)F)N1CCN(c2ncc(C(F)(F)F)cn2)CC1 (single isomer, unassigned) [Compound 55]
< 100 nM	O=C(CC1CN(c2cc(C(F)(F)F)c(=O)[nH]n2)CCC1(F)F)N1CCN(c2ncc(C(F)(F)F)cn2)CC1 (single isomer, unassigned) [Compound 80]
< 100 nM	O=C(OC1CN(c2cc(C(F)(F)F)c(=O)[nH]n2)CCC1(F)F)N1CCN(c2ncc(C(F)(F)F)cn2)CC1 (single isomer, unassigned) [Compound 81]
< 100 nM	C#Cc1c(C)c(N2CCOC(CC(=O)N3CCN(c4ncc(C(F)(F)F)cn4)CC3)C2)n[nH]c1=O (single isomer, unassigned) [Compound 89]
< 100 nM	O=C(CC1CN(c2n[nH]c(=O)c3c(Cl)cccc23)CCO1)N1CCN(c2ncc(C(F)(F)F)cn2)CC1 (single isomer, unassigned) [Compound 98]
< 100 nM	O=C(CC1CN(c2n[nH]c(=O)c3cc(Cl)ccc23)CCO1)N1CCN(c2ncc(C(F)(F)F)cn2)CC1 (single isomer, unassigned) [Compound 99]
< 100 nM	O=C(CC1CN(c2n[nH]c(=O)c3ccc(C4CC4)cc23)CCO1)N1CCN(c2ncc(C(F)(F)F)cn2)CC1 (single isomer, unassigned) [Compound 103]
< 100 nM	O=C(CC1CN(c2n[nH]c(=O)c3cccnc23)CCO1)N1CCN(c2ncc(C(F)(F)F)cn2)CC1 (single isomer, unassigned) [Compound 104]
100 to 1000 nM	C#Cc1c(C)c(N2CCOC(CC(=O)N3CCN(c4ncc(C(F)(F)F)cn4)CC3)C2)n[nH]c1=O (single isomer, unassigned) [Compound 113]
> 1000 nM	O=C(CC1CN(c2n[nH]c(=O)c3cccnc23)CCO1)N1CCN(c2ncc(C(F)(F)F)cn2)CC1 (single isomer, unassigned) [Compound 124]
> 1000 nM	O=C(CC1CN(c2n[nH]c(=O)c3ncccc23)CCO1)N1CCN(c2ncc(C(F)(F)F)cn2)CC1 (single isomer, unassigned) [Compound 126]
< 100 nM	O=C(COC1CCOc2c1n[nH]c(=O)c2C1CC1)N1CCN(c2ncc(C(F)(F)F)cn2)CC1 (single isomer, unassigned) [Compound 128]

The remaining lines, values behind:

Compound	IC50
O=C(CO[C@H]1CCNc2c1n[nH]c(=O)c2C(F)(F)F)N1CCN(c2ncc(C(F)(F)F)cn2)CC1 (single isomer, unassigned) [Compound 3]	100 to 1000 nM
CN1CC[C@@H](OCC(=O)N2CCN(c3ncc(C(F)(F)F)cn3)CC2)c2n[nH]c(=O)c(C(F)(F)F)c21 (single isomer, unassigned) [Compound 4]	< 100 nM
CN1CC[C@H](OCC(=O)N2CCN(c3ncc(C(F)(F)F)cn3)CC2)c2n[nH]c(=O)c(C(F)(F)F)c21 (single isomer, unassigned) [Compound 5]	100 to 1000 nM
O=C(CCO[C@H]1CCNc2c1n[nH]c(=O)c2C(F)(F)F)N1CCN(c2ncc(C(F)(F)F)cn2)CC1 (single isomer, unassigned) [Compound 7]	100 to 1000 nM
CN1C[C@H](OCC(=O)N2CCN(c3ncc(C(F)(F)F)cn3)CC2)c2n[nH]c(=O)c3cc(F)cc1c23 (single isomer, unassigned) [Compound 13]	100 to 1000 nM
Cc1c(N2CCOC(CC(=O)N3CCN(c4ncc(C(F)(F)F)cn4)CC3)C2)n[nH]c(=O)c1C(F)(F)F (single isomer, unassigned) [Compound 38]	< 100 nM
C#Cc1cc(N2CCOC(CC(=O)N3CCN(c4ncc(C(F)(F)F)cn4)CC3)C2)n[nH]c1=O (single isomer, unassigned) [Compound 44]	100 to 1000 nM
C#Cc1cc(N2CCOC(CC(=O)N3CCN(c4ncc(C(F)(F)F)cn4)CC3)C2)n[nH]c1=O (single isomer, unassigned) [Compound 45]	100 to 1000 nM
O=C(CC1CN(c2n[nH]c(=O)c3cc(F)ccc23)CCO1)N1CCN(c2ncc(C(F)(F)F)cn2)CC1 (single isomer, unassigned) [Compound 49]	100 to 1000 nM
O=C(CC1CN(c2n[nH]c(=O)c3ccc(F)cc23)CCO1)N1CCN(c2ncc(C(F)(F)F)cn2)CC1 (single isomer, unassigned) [Compound 51]	100 to 1000 nM
O=C(CC1CN(c2n[nH]c(=O)c3ccc(F)cc23)CCO1)N1CCN(c2ncc(C(F)(F)F)cn2)CC1 (single isomer, unassigned) [Compound 52]	< 100 nM
O=C(CC1CN(c2n[nH]c(=O)c3c(Cl)cccc23)CCO1)N1CCN(c2ncc(C(F)(F)F)cn2)CC1 (single isomer, unassigned) [Compound 93]	< 100 nM
O=C(CC1CN(c2n[nH]c(=O)c3c(F)cccc23)CCO1)N1CCN(c2ncc(C(F)(F)F)cn2)CC1 (single isomer, unassigned) [Compound 94]	< 100 nM
O=C(CC1CN(c2n[nH]c(=O)c3ccc(Cl)cc23)CCO1)N1CCN(c2ncc(C(F)(F)F)cn2)CC1 (single isomer, unassigned) [Compound 100]	< 100 nM
Cc1ccc2c(=O)[nH]nc(N3CCOC(CC(=O)N4CCN(c5ncc(C(F)(F)F)cn5)CC4)C3)c2c1 (single isomer, unassigned) [Compound 102]	< 100 nM
O=C(CC1CN(c2n[nH]c(=O)c3ccc(C4CC4)cc23)CCO1)N1CCN(c2ncc(C(F)(F)F)cn2)CC1 (single isomer, unassigned) [Compound 105]	100 to 1000 nM
Cc1cccc2c(N3CCOC(CC(=O)N4CCN(c5ncc(C(F)(F)F)cn5)CC4)C3)n[nH]c(=O)c12 (single isomer, unassigned) [Compound 106]	100 to 1000 nM
O=C(CC1CN(c2n[nH]c(=O)c3ccccc23)CCO1)N1CCN(c2ncc(C(F)(F)F)cn2)CC1 (single isomer, unassigned) [Compound 107]	100 to 1000 nM
O=C(CC1CN(c2cc(C(F)(F)F)c(=O)[nH]n2)CCC1(F)F)N1CCN(c2ncc(C(F)(F)F)cn2)CC1 (single isomer, unassigned) [Compound 108]	< 100 nM
O=C(CC1CN(c2n[nH]c(=O)c3c(F)cccc23)CCO1)N1CCN(c2ncc(C(F)(F)F)cn2)CC1 (single isomer, unassigned) [Compound 109]	< 100 nM
O=C(OC1CN(c2cc(C(F)(F)F)c(=O)[nH]n2)CCC1(F)F)N1CCN(c2ncc(C(F)(F)F)cn2)CC1 (single isomer, unassigned) [Compound 117]	> 1000 nM
O=C(CC1CN(c2n[nH]c(=O)c3cc(Cl)ccc23)CCO1)N1CCN(c2ncc(C(F)(F)F)cn2)CC1 (single isomer, unassigned) [Compound 121]	100 to 1000 nM
O=C(CC1CN(c2n[nH]c(=O)c3ccc(Cl)cc23)CCO1)N1CCN(c2ncc(C(F)(F)F)cn2)CC1 (single isomer, unassigned) [Compound 122]	100 to 1000 nM
O=C(CC1CN(c2n[nH]c(=O)c3ncccc23)CCO1)N1CCN(c2ncc(C(F)(F)F)cn2)CC1 (single isomer, unassigned) [Compound 125]	< 100 nM
